Assay results reported in patent US4472404A, “8-Quinolinyl carbamates and their use as urinary tract antimicrobials” (priority 1982, dated 1984).
Converted amounts (≈) assume the structure as drawn.

How the values were obtained:
Format in all cases: cell-based
[1] = test system: Escherichia coli ATCC 9723; assay: Minimum inhibitory concentration, urinary tract organisms (Example 13); settings: ATCC9723, Ec 9723, read-out: Minimum Inhibitory Concentration
Protocol: (§1) The test compound was added to molten agar as a solution (when conveniently soluble in a solvent such as dimethylformamide) or a suspension forming a mixture having a concentration of 0.05 percent (500 ppm). The mixture was stirred and poured into plates to harden. When hardened, the plates were inoculated with various bacteria and fungi. The bacteria-inoculated plates were incubated at 37° C. for 24 hours, while the fungi-inoculated plates were incubated for about 72-120 hours. Following incubation, the plates were examined for growth or inhibition of the respective organisms.
(§2) After the initial readings, compounds showing sufficient activity were re-tested at various concentrations to determine the minimum inhibitory concentration (in ppm) of the compounds of the invention against the various bacteria and fungi tested.
(§3) Following a procedure substantially the same as that described in Example 12, the minimum inhibitory concentration for the compounds described herein was determined for various organisms representative of those commonly associated with urinary tract infections.
(§4) The organisms used in this procedure and the abbreviations designated in Table 3 are as follows: […]

[2] = test system: Pseudomonas aeruginosa ATCC 10145; assay: as above; settings: ATCC10145, Pa 10145, read-out: Minimum Inhibitory Concentration
Protocol: as §1, §2, §3, §4

[3] = test system: Klebsiella pneumoniae ATCC 23357; assay: as above; settings: ATCC23357, Kp 23357, read-out: Minimum Inhibitory Concentration
Protocol: as §1, §2, §3, §4

[4] = test system: Escherichia coli ATCC 25922; assay: as above; settings: ATCC25922, Ec 25922, read-out: Minimum Inhibitory Concentration
Protocol: as §1, §2, §3, §4

[5] = test system: Pseudomonas aeruginosa PRD-10; assay: as above; settings: PRD10, Pa PRD-10, read-out: Minimum Inhibitory Concentration
Protocol: as §1, §2, §3, §4

[6] = test system: Klebsiella pneumoniae M-1; assay: as above; settings: M1, Kp M-1, read-out: Minimum Inhibitory Concentration
Protocol: as §1, §2, §3, §4

Proteus mirabilis 470/1 = assay: as above; settings: Pm 470/1, read-out: Minimum Inhibitory Concentration
Protocol: as §1, §2, §3, §4

Serratia marcescens M-1 = assay: as above; settings: M1, Sr M-1, read-out: Minimum Inhibitory Concentration
Protocol: as §1, §2, §3, §4

[7] = test system: Staphylococcus aureus ATCC 25923; assay: as above; settings: ATCC25923, Sa 25923, read-out: Minimum Inhibitory Concentration
Protocol: as §1, §2, §3, §4

[8] = test system: Pseudomonas aeruginosa ATCC 27853; assay: as above; settings: ATCC27853, Pa 27853, read-out: Minimum Inhibitory Concentration
Protocol: as §1, §2, §3, §4

[9] = test system: Escherichia coli ATCC 11229; assay: as above; settings: ATCC11229, Ec 11229, read-out: Minimum Inhibitory Concentration
Protocol: as §1, §2, §3, §4

[10] = test system: Pseudomonas aeruginosa ATCC 7700; assay: as above; settings: ATCC7700, Pa 7700, read-out: Minimum Inhibitory Concentration
Protocol: as §1, §2, §3, §4

[11] = test system: Klebsiella pneumoniae M-6; assay: as above; settings: M6, Kp M-6, read-out: Minimum Inhibitory Concentration
Protocol: as §1, §2, §3, §4

[12] = test system: Escherichia coli ATCC 4157; assay: as above; settings: ATCC4157, Ec 4157, read-out: Minimum Inhibitory Concentration
Protocol: as §1, §2, §3, §4

[13] = test system: Klebsiella pneumoniae M-2; assay: as above; settings: M2, Kp M-2, read-out: Minimum Inhibitory Concentration
Protocol: as §1, §2, §3, §4

[14] = test system: Enterobacter aerogenes ATCC 13048; assay: as above; settings: Klebsiella aerogenes, ATCC13048; Ea 13048; read-out: Minimum Inhibitory Concentration
Protocol: as §1, §2, §3, §4

Ceratocystis ips = assay: Agar-plate minimum inhibitory concentration (Example 12); settings: Ceratocystis ips; agar, 72-120 hours; read-out: Minimum Inhibitory Concentration
Protocol: as §1, §2

Candida albicans = assay: as above; settings: agar, 72-120 hours, read-out: Minimum Inhibitory Concentration
Protocol: as §1, §2

[15] = test system: Trichophyton mentagrophytes; assay: as above; settings: agar, 72-120 hours, read-out: Minimum Inhibitory Concentration
Protocol: as §1, §2

Aspergillus niger = assay: as above; settings: agar, 72-120 hours, read-out: Minimum Inhibitory Concentration
Protocol: as §1, §2

Candida pelliculosa = assay: as above; settings: Hansenula anomala; Candida pelliculosa; agar, 72-120 hours; read-out: Minimum Inhibitory Concentration
Protocol: as §1, §2

Salmonella typhosa = assay: as above; settings: Salmonella enterica; Salmonella typhosa; agar, 37° C., 24 hours; read-out: Minimum Inhibitory Concentration
Protocol: as §1, §2

Streptococcus mutans = assay: as above; settings: agar, 37° C., 24 hours, read-out: Minimum Inhibitory Concentration
Protocol: as §1, §2

Bacillus subtilis = assay: as above; settings: agar, 37° C., 24 hours, read-out: Minimum Inhibitory Concentration
Protocol: as §1, §2

Row | Structure (SMILES) | MIC [1] | MIC [2] | MIC [3] | MIC [4] | MIC [5] | MIC [6] | MIC (Proteus mirabilis 470/1) | MIC (Serratia marcescens M-1) | MIC [7] | MIC [8] | MIC [9] | MIC [10] | MIC [11] | MIC [12] | MIC [13] | MIC [14] | MIC (Ceratocystis ips) | MIC (Candida albicans) | MIC [15] | MIC (Aspergillus niger) | also measured
1 | CCOC(=O)CNC(=O)Oc1ccc(Cl)c2cccnc12 [Example 1, Ethyl N-(((5-chloro-8-quinolinyl)oxy)-carbonyl)glycinate] | 25 µg/mL (≈ 81 µM) | 25 µg/mL (≈ 81 µM) | 25 µg/mL (≈ 81 µM) | 25 µg/mL (≈ 81 µM) | 100 µg/mL (≈ 324 µM) | 50 µg/mL (≈ 162 µM) | 50 µg/mL (≈ 162 µM) | 50 µg/mL (≈ 162 µM) | ≤ 5 µg/mL | 100 µg/mL (≈ 324 µM) | 25 µg/mL (≈ 81 µM) | 100 µg/mL (≈ 324 µM) | 25 µg/mL (≈ 81 µM) | 25 µg/mL (≈ 81 µM) | 50 µg/mL (≈ 162 µM) | 50 µg/mL (≈ 162 µM) | 50 µg/mL (≈ 162 µM) | 10 µg/mL (≈ 32.4 µM) | 10 µg/mL (≈ 32.4 µM) | 10 µg/mL (≈ 32.4 µM) | MIC (Candida pelliculosa): 10 µg/mL (≈ 32.4 µM); MIC (Salmonella typhosa): 50 µg/mL (≈ 162 µM); MIC (Streptococcus mutans): 100 µg/mL (≈ 324 µM); MIC (Bacillus subtilis): 10 µg/mL (≈ 32.4 µM)
2 | CCOC(=O)CNC(=O)Oc1c(Br)cc(Br)c2cccnc12 [Example 2, Ethyl N-(((5,7-dibromo-8-quinolinyl)oxy)carbonyl)glycinate] | 25 µg/mL (≈ 57.9 µM) | 25 µg/mL (≈ 57.9 µM) | 250 µg/mL (≈ 579 µM) | 25 µg/mL (≈ 57.9 µM) | 75 µg/mL (≈ 174 µM) | 50 µg/mL (≈ 116 µM) | 25 µg/mL (≈ 57.9 µM) | 250 µg/mL (≈ 579 µM) | 25 µg/mL (≈ 57.9 µM) | 75 µg/mL (≈ 174 µM) | 25 µg/mL (≈ 57.9 µM) | 250 µg/mL (≈ 579 µM) | 25 µg/mL (≈ 57.9 µM) | 25 µg/mL (≈ 57.9 µM) | 25 µg/mL (≈ 57.9 µM) | 75 µg/mL (≈ 174 µM) | 50 µg/mL (≈ 116 µM) | 50 µg/mL (≈ 116 µM) | 50 µg/mL (≈ 116 µM) | 50 µg/mL (≈ 116 µM) | MIC (Candida pelliculosa): 10 µg/mL (≈ 23.1 µM); MIC (Salmonella typhosa): 50 µg/mL (≈ 116 µM); MIC (Streptococcus mutans): 50 µg/mL (≈ 116 µM); MIC (Bacillus subtilis): 0.5 µg/mL (≈ 1.16 µM)
3 | CCOC(=O)CNC(=O)Oc1cccc2ccc(C)nc12 [Example 3, Ethyl N-(((2-methyl-8-quinolinyl)oxy)carbonyl)glycinate] | 100 µg/mL (≈ 347 µM) | 250 µg/mL (≈ 867 µM) | 250 µg/mL (≈ 867 µM) | 75 µg/mL (≈ 260 µM) | > 1000 µg/mL | 250 µg/mL (≈ 867 µM) | 250 µg/mL (≈ 867 µM) | 750 µg/mL (≈ 2600 µM) | 25 µg/mL (≈ 86.7 µM) | > 1000 µg/mL | 75 µg/mL (≈ 260 µM) | > 1000 µg/mL | 250 µg/mL (≈ 867 µM) | 100 µg/mL (≈ 347 µM) | 250 µg/mL (≈ 867 µM) | 250 µg/mL (≈ 867 µM) | 500 µg/mL (≈ 1730 µM) | 500 µg/mL (≈ 1730 µM) | 500 µg/mL (≈ 1730 µM) | 500 µg/mL (≈ 1730 µM) | MIC (Candida pelliculosa): 500 µg/mL (≈ 1730 µM); MIC (Salmonella typhosa): 50 µg/mL (≈ 173 µM); MIC (Streptococcus mutans): 500 µg/mL (≈ 1730 µM); MIC (Bacillus subtilis): 10 µg/mL (≈ 34.7 µM)
4 | CCOC(=O)CNC(=O)Oc1c(Cl)cc(Cl)c2cccnc12 [Example 4, Ethyl N-(((5,7-dichloro-8-quinolinyl)oxy)carbonyl)glycinate] | 10 µg/mL (≈ 29.1 µM) | 10 µg/mL (≈ 29.1 µM) | 25 µg/mL (≈ 72.9 µM) | 10 µg/mL (≈ 29.1 µM) | 50 µg/mL (≈ 146 µM) | 25 µg/mL (≈ 72.9 µM) | 10 µg/mL (≈ 29.1 µM) | 25 µg/mL (≈ 72.9 µM) | 10 µg/mL (≈ 29.1 µM) | 50 µg/mL (≈ 146 µM) | 10 µg/mL (≈ 29.1 µM) | 50 µg/mL (≈ 146 µM) | 25 µg/mL (≈ 72.9 µM) | 10 µg/mL (≈ 29.1 µM) | 25 µg/mL (≈ 72.9 µM) | 25 µg/mL (≈ 72.9 µM) | 50 µg/mL (≈ 146 µM) | 10 µg/mL (≈ 29.1 µM) | 10 µg/mL (≈ 29.1 µM) | 10 µg/mL (≈ 29.1 µM) | MIC (Candida pelliculosa): 5 µg/mL (≈ 14.6 µM); MIC (Salmonella typhosa): 10 µg/mL (≈ 29.1 µM); MIC (Streptococcus mutans): 500 µg/mL (≈ 1460 µM); MIC (Bacillus subtilis): 1 µg/mL (≈ 2.91 µM)
